Reference: PubChem BioAssay (NCI)
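Step 1: Grow cells in 96-well plates. Step 2: Expose to compound for 48 hours at 5 concentrations. Step 3: Interpolate endpoints linearly; if unreached, use highest concentration. Abbreviation: GI50, concentration required for 50% inhibition of growth. TGI marks complete inhibition of growth.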

Key:
Assay in all cases: NCI-60 cell line screen, 48 h
SK-MEL-28 melanoma = system: SK-MEL-28 melanoma
HS 578T breast = system: HS 578T breast
HCC-2998 colon = system: HCC-2998 colon
MCF7 breast = system: MCF7 breast
SK-MEL-5 melanoma = system: SK-MEL-5 melanoma
HOP-62 NSCLC = system: HOP-62 NSCLC
SK-MEL-2 melanoma = system: SK-MEL-2 melanoma
DU-145 prostate = system: DU-145 prostate
SNB-19 CNS = system: SNB-19 CNS
BT-549 breast = system: BT-549 breast

| Structure (SMILES) | GI50 (SK-MEL-28 melanoma) [µM] | TGI (SK-MEL-28 melanoma) [µM] | GI50 (HS 578T breast) [µM] | TGI (HS 578T breast) [µM] | GI50 (HCC-2998 colon) [µM] | TGI (HCC-2998 colon) [µM] | GI50 (MCF7 breast) [µM] | TGI (MCF7 breast) [µM] | GI50 (SK-MEL-5 melanoma) [µM] | TGI (SK-MEL-5 melanoma) [µM] | GI50 (HOP-62 NSCLC) [µM] | TGI (HOP-62 NSCLC) [µM] | GI50 (SK-MEL-2 melanoma) [µM] | TGI (SK-MEL-2 melanoma) [µM] | GI50 (DU-145 prostate) [µM] | TGI (DU-145 prostate) [µM] | GI50 (SNB-19 CNS) [µM] | TGI (SNB-19 CNS) [µM] | GI50 (BT-549 breast) [µM] | TGI (BT-549 breast) [µM] |
| --- | --- | --- | --- | --- | --- | --- | --- | --- | --- | --- | --- | --- | --- | --- | --- | --- | --- | --- | --- | --- |
| CC(C)=CCc1c(O)c(C(=O)CC(C)C)c(O)c2c(-c3ccccc3)cc(=O)oc12 | 2.94 | > 50 | 9.75 | 49.9 | 11.7 | > 50 | 11.8 | > 50 | 3.38 | 12.3 | 15.4 | > 50 | 6.18 | 28.7 | 15.5 | > 50 | 10.3 | > 50 | 7.31 | > 50 |
| COc1ccc(-c2cc(-c3ccc(Cl)cc3)nc(SCCCCCCC(=O)NO)n2)cc1 | 2.43 | 11.7 | 1.81 | > 50 | 2.01 | 8.37 | 1.73 | > 50 | 1.14 | 2.52 | 1.66 | 15 | 5.73 | > 50 | 1.76 | 15.4 | 1.67 | 23.6 | 2.16 | 14 |
| CCN(CC)CCOc1ccc(Cc2ccccc2)cc1 | 38.5 | > 100 | 13.6 | 52.4 | 38.7 | > 100 | 27.6 | > 100 | 15.1 | 28.5 | 32.4 | > 100 | 13.9 | 50.5 | 32.7 | > 100 | 68.7 | > 100 | 31.4 | > 100 |
| COC(=O)CCCNC(=O)C(=O)c1c(O)c(O)c(C(C)C)c2cc(C)c(-c3c(C)cc4c(C(C)C)c(O)c(O)c(C(=O)C(=O)NCCCC(=O)OC)c4c3O)c(O)c12 | 1.1 | 6.92 | 0.975 | 11.6 | 0.679 | 7.98 | 0.641 | 4.71 | 1.24 | 4.7 | 0.942 | 4.21 | 0.858 | 2.93 | 0.556 | 3.74 | 0.167 | 7.1 | 1.19 | 7.28 |
